What all share (experiment): HotSpot kinase profiling
What all share (format): biochemical

For one assay, the target named is T1, PDK1/PDPK1 (Homo sapiens, UniProt O15530).
T1 construct: purchased Reaction Biology Corp
T1 sequence (O15530 1-556): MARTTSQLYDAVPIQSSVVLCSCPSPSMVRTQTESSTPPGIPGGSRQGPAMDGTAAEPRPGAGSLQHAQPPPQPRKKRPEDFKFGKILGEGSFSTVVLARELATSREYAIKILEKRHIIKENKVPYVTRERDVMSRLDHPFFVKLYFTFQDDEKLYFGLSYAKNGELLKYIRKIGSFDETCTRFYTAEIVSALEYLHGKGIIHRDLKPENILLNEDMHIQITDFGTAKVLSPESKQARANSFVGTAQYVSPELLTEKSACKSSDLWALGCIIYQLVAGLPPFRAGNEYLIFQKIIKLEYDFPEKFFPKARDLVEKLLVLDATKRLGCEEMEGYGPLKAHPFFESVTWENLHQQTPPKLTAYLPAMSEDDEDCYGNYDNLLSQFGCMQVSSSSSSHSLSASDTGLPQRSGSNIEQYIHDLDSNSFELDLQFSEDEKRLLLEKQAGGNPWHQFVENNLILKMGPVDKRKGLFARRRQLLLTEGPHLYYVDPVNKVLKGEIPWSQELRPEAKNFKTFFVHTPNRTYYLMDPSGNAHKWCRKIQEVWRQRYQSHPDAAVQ
In outline: (§1)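 Percent inhibition, averaged when run more than once and referenced to a DMSO negative control, came from a radioactive filter-binding readout on P81 paper. Reactions of kinase with freshly made substrate and cofactors ran for 2 h at room temperature.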

Another assay concerns the target T2, JAK2 (Homo sapiens, UniProt O60674).
T2 construct: purchased Reaction Biology Corp
An outline of the steps: as §1

Another assay concerns the target T3, TNK1 (Homo sapiens, UniProt Q13470).
T3 construct: purchased Reaction Biology Corp
T3 sequence (Q13470 1-666): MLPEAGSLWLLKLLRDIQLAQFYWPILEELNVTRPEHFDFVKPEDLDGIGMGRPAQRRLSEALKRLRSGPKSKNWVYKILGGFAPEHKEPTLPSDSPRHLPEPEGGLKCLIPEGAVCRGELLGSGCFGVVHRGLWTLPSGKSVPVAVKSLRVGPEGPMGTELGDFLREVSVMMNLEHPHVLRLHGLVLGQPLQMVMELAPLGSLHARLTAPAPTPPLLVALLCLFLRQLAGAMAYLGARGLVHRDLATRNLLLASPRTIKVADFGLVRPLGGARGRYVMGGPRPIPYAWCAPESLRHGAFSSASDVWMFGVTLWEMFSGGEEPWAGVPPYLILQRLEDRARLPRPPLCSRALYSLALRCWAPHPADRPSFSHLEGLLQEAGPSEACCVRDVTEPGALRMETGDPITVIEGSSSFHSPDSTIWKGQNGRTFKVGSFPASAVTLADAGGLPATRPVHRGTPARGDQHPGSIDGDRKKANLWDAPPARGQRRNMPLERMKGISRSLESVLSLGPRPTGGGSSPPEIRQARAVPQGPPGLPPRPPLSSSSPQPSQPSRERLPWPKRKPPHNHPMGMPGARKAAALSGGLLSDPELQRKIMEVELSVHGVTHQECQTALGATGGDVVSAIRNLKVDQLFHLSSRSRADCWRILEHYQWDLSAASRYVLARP
An outline of the steps: as §1

The target in another assay is T4, ERBB2/HER2 (Homo sapiens, UniProt P04626).
T4 construct: purchased Reaction Biology Corp
T4 sequence (P04626 23-1255): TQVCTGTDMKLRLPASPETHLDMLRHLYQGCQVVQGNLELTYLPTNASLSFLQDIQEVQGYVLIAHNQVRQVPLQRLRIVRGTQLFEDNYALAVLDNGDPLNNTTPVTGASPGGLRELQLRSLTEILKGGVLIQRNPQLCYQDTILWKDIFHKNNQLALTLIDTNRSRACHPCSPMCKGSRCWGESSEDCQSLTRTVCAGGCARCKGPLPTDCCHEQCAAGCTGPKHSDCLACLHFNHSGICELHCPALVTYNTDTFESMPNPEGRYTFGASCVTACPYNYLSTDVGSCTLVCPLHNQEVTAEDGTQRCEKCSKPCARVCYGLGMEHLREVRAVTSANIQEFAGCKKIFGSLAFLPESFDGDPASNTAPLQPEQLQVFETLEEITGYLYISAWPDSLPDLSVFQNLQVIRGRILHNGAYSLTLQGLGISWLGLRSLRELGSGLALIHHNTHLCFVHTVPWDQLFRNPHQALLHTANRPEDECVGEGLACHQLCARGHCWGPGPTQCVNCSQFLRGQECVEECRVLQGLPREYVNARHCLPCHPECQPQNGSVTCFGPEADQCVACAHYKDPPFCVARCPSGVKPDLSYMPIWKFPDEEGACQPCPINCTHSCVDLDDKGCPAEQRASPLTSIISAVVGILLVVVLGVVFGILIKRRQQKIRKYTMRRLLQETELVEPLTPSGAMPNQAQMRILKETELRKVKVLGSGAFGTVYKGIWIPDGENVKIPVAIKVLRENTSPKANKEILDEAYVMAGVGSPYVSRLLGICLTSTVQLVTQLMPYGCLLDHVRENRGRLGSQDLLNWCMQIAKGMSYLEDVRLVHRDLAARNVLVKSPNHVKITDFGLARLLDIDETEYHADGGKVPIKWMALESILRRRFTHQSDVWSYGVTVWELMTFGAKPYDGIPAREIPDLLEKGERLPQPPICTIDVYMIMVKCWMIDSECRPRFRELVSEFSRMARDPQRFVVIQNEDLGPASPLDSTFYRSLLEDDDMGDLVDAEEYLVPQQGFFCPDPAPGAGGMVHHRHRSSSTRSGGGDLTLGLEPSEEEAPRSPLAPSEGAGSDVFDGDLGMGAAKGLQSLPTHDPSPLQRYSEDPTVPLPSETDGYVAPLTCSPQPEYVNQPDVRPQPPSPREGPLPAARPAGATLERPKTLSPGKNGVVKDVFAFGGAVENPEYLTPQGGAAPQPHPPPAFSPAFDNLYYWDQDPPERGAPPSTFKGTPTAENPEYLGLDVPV
In outline: as §1

Another assay has as its target T5, IR (Homo sapiens, UniProt P06213).
T5 construct: purchased Reaction Biology Corp
In outline:
as §1

For the next assay, the target named is T6, MNK2 (Homo sapiens, UniProt Q9HBH9).
T6 construct: purchased Reaction Biology Corp
T6 sequence (Q9HBH9 whole entry): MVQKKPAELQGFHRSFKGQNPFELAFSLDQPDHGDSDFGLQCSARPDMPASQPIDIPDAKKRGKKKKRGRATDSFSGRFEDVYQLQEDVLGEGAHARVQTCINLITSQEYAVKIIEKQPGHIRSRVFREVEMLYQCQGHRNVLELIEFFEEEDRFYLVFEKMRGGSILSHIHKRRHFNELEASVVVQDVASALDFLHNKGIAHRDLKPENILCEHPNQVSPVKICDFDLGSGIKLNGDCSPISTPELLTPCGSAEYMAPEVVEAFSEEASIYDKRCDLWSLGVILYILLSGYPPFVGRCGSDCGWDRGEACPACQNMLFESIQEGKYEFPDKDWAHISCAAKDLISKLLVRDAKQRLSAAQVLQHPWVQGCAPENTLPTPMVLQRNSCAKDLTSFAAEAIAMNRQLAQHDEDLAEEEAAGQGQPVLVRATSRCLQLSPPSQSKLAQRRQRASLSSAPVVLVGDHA
An outline of the steps:
as §1

Setting [1] is: read-out: % Enzyme Activity (relative to DMSO controls) Run 1.
Where [2] appears, read: read-out: % Enzyme Activity (relative to DMSO controls) Run 2.

This is an account of results in patent US9492471B2, “Methods of treating a disease or disorder associated with Bruton'S Tyrosine Kinase” (Celgene Avilomics Research, Inc., priority 2013, dated 2016).

Read-outs that look alike come from different tables or passages of the source.

T5 sequence (P06213 28-1382): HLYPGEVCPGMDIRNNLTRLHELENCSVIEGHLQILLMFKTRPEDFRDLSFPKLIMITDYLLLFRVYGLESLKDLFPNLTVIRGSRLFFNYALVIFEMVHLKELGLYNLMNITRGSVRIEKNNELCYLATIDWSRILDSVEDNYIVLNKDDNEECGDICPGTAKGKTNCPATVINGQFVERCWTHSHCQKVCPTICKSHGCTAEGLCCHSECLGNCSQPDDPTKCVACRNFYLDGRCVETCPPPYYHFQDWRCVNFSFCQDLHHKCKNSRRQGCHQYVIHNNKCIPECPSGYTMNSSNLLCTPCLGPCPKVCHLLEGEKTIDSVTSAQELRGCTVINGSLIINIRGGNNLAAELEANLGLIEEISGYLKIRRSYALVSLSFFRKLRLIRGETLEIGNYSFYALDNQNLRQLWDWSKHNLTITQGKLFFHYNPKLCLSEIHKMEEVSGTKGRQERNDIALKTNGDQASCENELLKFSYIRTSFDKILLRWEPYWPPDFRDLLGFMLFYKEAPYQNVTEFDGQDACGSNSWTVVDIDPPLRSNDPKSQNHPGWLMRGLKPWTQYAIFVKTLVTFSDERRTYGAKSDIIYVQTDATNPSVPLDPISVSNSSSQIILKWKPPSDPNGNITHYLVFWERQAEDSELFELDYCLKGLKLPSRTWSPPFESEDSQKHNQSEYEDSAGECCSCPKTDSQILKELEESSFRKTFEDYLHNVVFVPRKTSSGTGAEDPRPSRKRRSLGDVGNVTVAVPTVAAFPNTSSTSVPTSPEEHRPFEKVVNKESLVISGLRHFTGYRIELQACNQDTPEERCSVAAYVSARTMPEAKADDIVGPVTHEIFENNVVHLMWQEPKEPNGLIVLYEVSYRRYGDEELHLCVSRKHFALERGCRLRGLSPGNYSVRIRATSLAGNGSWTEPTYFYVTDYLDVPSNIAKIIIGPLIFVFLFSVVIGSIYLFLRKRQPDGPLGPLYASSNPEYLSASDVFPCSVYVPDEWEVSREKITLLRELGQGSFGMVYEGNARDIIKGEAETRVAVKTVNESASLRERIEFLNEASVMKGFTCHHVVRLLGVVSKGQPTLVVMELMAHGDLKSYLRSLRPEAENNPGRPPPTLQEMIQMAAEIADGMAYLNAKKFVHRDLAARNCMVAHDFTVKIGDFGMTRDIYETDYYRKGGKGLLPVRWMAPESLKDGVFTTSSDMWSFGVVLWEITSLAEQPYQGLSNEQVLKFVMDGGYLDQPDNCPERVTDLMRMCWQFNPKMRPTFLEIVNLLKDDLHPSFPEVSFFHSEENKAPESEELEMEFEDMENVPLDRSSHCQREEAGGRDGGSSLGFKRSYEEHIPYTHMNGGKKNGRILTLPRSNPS
T2 sequence (O60674 whole entry): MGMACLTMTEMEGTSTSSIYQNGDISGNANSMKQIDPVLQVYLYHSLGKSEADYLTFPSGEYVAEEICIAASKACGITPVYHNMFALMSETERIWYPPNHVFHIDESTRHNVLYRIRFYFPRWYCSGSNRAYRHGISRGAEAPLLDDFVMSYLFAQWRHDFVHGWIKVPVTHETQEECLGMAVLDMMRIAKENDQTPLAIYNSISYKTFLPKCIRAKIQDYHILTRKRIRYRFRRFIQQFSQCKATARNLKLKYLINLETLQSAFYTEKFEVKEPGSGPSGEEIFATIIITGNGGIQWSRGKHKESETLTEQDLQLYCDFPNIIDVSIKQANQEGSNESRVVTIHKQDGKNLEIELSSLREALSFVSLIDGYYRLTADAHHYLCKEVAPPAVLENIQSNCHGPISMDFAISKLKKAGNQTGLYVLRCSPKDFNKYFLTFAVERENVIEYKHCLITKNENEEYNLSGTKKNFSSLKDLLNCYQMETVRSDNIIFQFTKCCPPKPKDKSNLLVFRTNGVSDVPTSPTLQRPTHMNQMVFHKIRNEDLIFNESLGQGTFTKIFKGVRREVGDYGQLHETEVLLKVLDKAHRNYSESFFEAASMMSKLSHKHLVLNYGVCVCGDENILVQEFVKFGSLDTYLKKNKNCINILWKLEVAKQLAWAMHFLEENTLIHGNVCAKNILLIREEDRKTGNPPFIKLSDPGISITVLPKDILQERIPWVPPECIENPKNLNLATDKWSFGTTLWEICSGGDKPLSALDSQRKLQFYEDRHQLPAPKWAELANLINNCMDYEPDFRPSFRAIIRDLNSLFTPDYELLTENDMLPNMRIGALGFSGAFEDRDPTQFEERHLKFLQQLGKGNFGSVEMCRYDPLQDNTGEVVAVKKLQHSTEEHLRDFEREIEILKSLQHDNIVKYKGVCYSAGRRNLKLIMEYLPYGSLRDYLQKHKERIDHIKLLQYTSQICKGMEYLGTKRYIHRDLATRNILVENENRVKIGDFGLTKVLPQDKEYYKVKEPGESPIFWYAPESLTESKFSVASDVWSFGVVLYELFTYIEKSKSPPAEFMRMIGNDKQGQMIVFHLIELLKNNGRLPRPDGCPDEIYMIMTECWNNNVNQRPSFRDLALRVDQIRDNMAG

A word on the inhibition: it is the drop in the measured response relative to a control, in per cent. Consider `C=CC(=O)Nc1cccc(Nc2nc(Nc3ccc(OCCOC)c(F)c3)ncc2F)c1` [Compound 2], for which the inhibition at 3 µM against PDK1/PDPK1 was -5.96%; against JAK2 it was -11.6%; against TNK1, 83.7%; against ERBB2/HER2, 61.3%; on IR, 15.4%; at MNK2 it was 16.9%. The remaining activity at 3 µM on PDK1/PDPK1 (setting [1]) is 107%; on PDK1/PDPK1 (setting [2]) it was 105%; on JAK2 (setting [1]), 109%; at JAK2 (setting [2]), 115%; on TNK1 (setting [1]), 15.9%; at TNK1 (setting [2]), 16.6%. Also, the remaining activity at 3 µM at ERBB2/HER2 (setting [1]) was found to be 39.8%; on ERBB2/HER2 (setting [2]), 37.5%; at IR (setting [1]) it was 84.5%; on IR (setting [2]) it was 84.7%; on MNK2 (setting [1]), 83%; at MNK2 (setting [2]), 83.2%.
